According to ChEMBL document CHEMBL3885881, “DrugMatrix”:

Organism: Rattus norvegicus
Assay: DrugMatrix - Regimen: Daily Repeat
Format: toxicity, organism-based, Sprague-Dawley
Set-up: regimen Daily Repeat, gender Male, age 6-8 weeks
Conditions: in vivo, po, route oral GAVAGE, vehicle 100 % WATER; for ABSOLUTE BASOPHIL / ABSOLUTE EOSINOPHIL / ABSOLUTE LYMPHOCYTE / ABSOLUTE MONOCYTE / ABSOLUTE SEGMENTED NEUTROPHIL / BASOPHIL / EOSINOPHIL / ERYTHROCYTE COUNT / HEMATOCRIT / HEMOGLOBIN / LEUKOCYTE COUNT / LYMPHOCYTE / MEAN CORPUSCULAR HEMOGLOBIN / MEAN CORPUSCULAR HEMOGLOBIN CONCENTRATION / MEAN CORPUSCULAR VOLUME / MONOCYTE / NEUTROPHIL / NUCLEATED RED BLOOD CELLS / PLATELET COUNT: tissue Blood; for ALANINE AMINOTRANSFERASE / ALBUMIN / ALKALINE PHOSPHATASE / ASPARTATE AMINOTRANSFERASE / BLOOD UREA NITROGEN / CARBON DIOXIDE / CHLORIDE / CHOLESTEROL / CREATINE PHOSPHOKINASE / CREATININE / GLUCOSE / LACTATE DEHYDROGENASE / LIPASE / PHOSPHORUS / POTASSIUM / SODIUM / TOTAL BILIRUBIN / TOTAL PROTEIN / URIC ACID: tissue Plasma
[1] = 0 mg/kg, 72 h, dose level Control, time 3 day
[2] = 0 mg/kg, 120 h, dose level Control, time 5 day
[3] = 19.5 mg/kg, 72 h, dose level Low, time 3 day

For `CN1CCC[C@H]1c1cccnc1` [NICOTINE], the “ABSOLUTE BASOPHIL” value [1] was 0 CELLS/uL, the “ABSOLUTE EOSINOPHIL” value [1] was 0 CELLS/uL and the “ABSOLUTE LYMPHOCYTE” value [1] was 10386.33 CELLS/uL. The “ABSOLUTE MONOCYTE” value [1] was 88.5 CELLS/uL, the “ABSOLUTE SEGMENTED NEUTROPHIL” value [1] was 1008.5 CELLS/uL and the BASOPHIL [1] was 0%. The EOSINOPHIL [1] was 0%, the “ERYTHROCYTE COUNT” value [1] was 5.16 x10E6/uL and the HEMATOCRIT [1] was 32.43%. The HEMOGLOBIN [1] was 12.98 G/DL, the “LEUKOCYTE COUNT” value [1] was 11.48 x10E3/uL and the LYMPHOCYTE [1] was 92.33%. The “MEAN CORPUSCULAR HEMOGLOBIN” value [1] was 25.23 pg, the “MEAN CORPUSCULAR HEMOGLOBIN CONCENTRATION” value [1] was 40.08 G/DL and the “MEAN CORPUSCULAR VOLUME” value [1] was 62.95 fL. The MONOCYTE [1] was 0.67%, the NEUTROPHIL [1] was 7% and the “NUCLEATED RED BLOOD CELLS” value [1] was 0 /100WBC. The “PLATELET COUNT” value [1] was 1016.67 x10E3/uL, the “ALANINE AMINOTRANSFERASE” value [1] was 62.17 u/L and the ALBUMIN [1] was 3.95 G/DL. The “ALKALINE PHOSPHATASE” value [1] was 363.5 u/L, the “ASPARTATE AMINOTRANSFERASE” value [1] was 118 u/L and the “BLOOD UREA NITROGEN” value [1] was 14.5 mg/dL. The “CARBON DIOXIDE” value [1] was 22.83 mmol/L, the CHLORIDE [1] was 100.67 MEQ/L and the CHOLESTEROL [1] was 66 mg/dL. For the same molecule, the “CREATINE PHOSPHOKINASE” value [1] was 1308.83 u/L, the CREATININE [1] was 0.22 mg/dL and the GLUCOSE [1] was 187.5 mg/dL. For the same molecule, the “LACTATE DEHYDROGENASE” value [1] was 380.17 u/L, the LIPASE [1] was 16.17 u/L and the PHOSPHORUS [1] was 14.27 mg/dL. For the same molecule, the POTASSIUM [1] was 6.8 MEQ/L, the SODIUM [1] was 142.53 MEQ/L and the “TOTAL BILIRUBIN” value [1] was 0.2 mg/dL. The “TOTAL PROTEIN” value [1] was 5.68 G/DL, the “URIC ACID” value [1] was 2.87 mg/dL and the “ABSOLUTE BASOPHIL” value [2] was 0 CELLS/uL. The “ABSOLUTE EOSINOPHIL” value [2] was 80 CELLS/uL, the “ABSOLUTE LYMPHOCYTE” value [2] was 13301.33 CELLS/uL and the “ABSOLUTE MONOCYTE” value [2] was 180.83 CELLS/uL. The “ABSOLUTE SEGMENTED NEUTROPHIL” value [2] was 1187.83 CELLS/uL, the BASOPHIL [2] was 0% and the EOSINOPHIL [2] was 0.5%. For the same molecule, the “ERYTHROCYTE COUNT” value [2] was 5.54 x10E6/uL, the HEMATOCRIT [2] was 35.65% and the HEMOGLOBIN [2] was 14.22 G/DL. The “LEUKOCYTE COUNT” value [2] was 14.75 x10E3/uL, the LYMPHOCYTE [2] was 90.67% and the “MEAN CORPUSCULAR HEMOGLOBIN” value [2] was 25.65 pg. The “MEAN CORPUSCULAR HEMOGLOBIN CONCENTRATION” value [2] was 39.88 G/DL, the “MEAN CORPUSCULAR VOLUME” value [2] was 64.35 fL and the MONOCYTE [2] was 1%. For the same molecule, the NEUTROPHIL [2] was 7.83%, the “NUCLEATED RED BLOOD CELLS” value [2] was 0.17 /100WBC and the “PLATELET COUNT” value [2] was 1285.33 x10E3/uL. The “ALANINE AMINOTRANSFERASE” value [2] was 51.67 u/L, the ALBUMIN [2] was 4.08 G/DL and the “ALKALINE PHOSPHATASE” value [2] was 391.5 u/L. The “ASPARTATE AMINOTRANSFERASE” value [2] was 99.5 u/L, the “BLOOD UREA NITROGEN” value [2] was 15.5 mg/dL and the “CARBON DIOXIDE” value [2] was 28.33 mmol/L. For the same molecule, the CHLORIDE [2] was 101.83 MEQ/L, the CHOLESTEROL [2] was 67.83 mg/dL and the “CREATINE PHOSPHOKINASE” value [2] was 771.33 u/L. For the same molecule, the CREATININE [2] was 0.23 mg/dL, the GLUCOSE [2] was 156.5 mg/dL and the “LACTATE DEHYDROGENASE” value [2] was 544.33 u/L. For the same molecule, the LIPASE [2] was 10.17 u/L, the PHOSPHORUS [2] was 12.03 mg/dL and the POTASSIUM [2] was 6.81 MEQ/L. For the same molecule, the SODIUM [2] was 144.13 MEQ/L, the “TOTAL BILIRUBIN” value [2] was 0.22 mg/dL and the “TOTAL PROTEIN” value [2] was 6 G/DL. The “URIC ACID” value [2] was 2.18 mg/dL, the “ABSOLUTE BASOPHIL” value [3] was 0 CELLS/uL and the “ABSOLUTE EOSINOPHIL” value [3] was 274 CELLS/uL. The “ABSOLUTE LYMPHOCYTE” value [3] was 12164.33 CELLS/uL, the “ABSOLUTE MONOCYTE” value [3] was 176.67 CELLS/uL and the “ABSOLUTE SEGMENTED NEUTROPHIL” value [3] was 1085 CELLS/uL. For the same molecule, the BASOPHIL [3] was 0%, the EOSINOPHIL [3] was 2% and the “ERYTHROCYTE COUNT” value [3] was 5.66 x10E6/uL. For the same molecule, the HEMATOCRIT [3] was 36.1%, the HEMOGLOBIN [3] was 14.13 G/DL and the “LEUKOCYTE COUNT” value [3] was 13.7 x10E3/uL. The LYMPHOCYTE [3] was 88.67%, the “MEAN CORPUSCULAR HEMOGLOBIN” value [3] was 24.97 pg and the “MEAN CORPUSCULAR HEMOGLOBIN CONCENTRATION” value [3] was 39.17 G/DL. The “MEAN CORPUSCULAR VOLUME” value [3] was 63.73 fL, the MONOCYTE [3] was 1.33% and the NEUTROPHIL [3] was 8%. The “NUCLEATED RED BLOOD CELLS” value [3] was 0 /100WBC, the “PLATELET COUNT” value [3] was 1341.67 x10E3/uL and the “ALANINE AMINOTRANSFERASE” value [3] was 53.67 u/L. The ALBUMIN [3] was 4.07 G/DL, the “ALKALINE PHOSPHATASE” value [3] was 372.67 u/L and the “ASPARTATE AMINOTRANSFERASE” value [3] was 86.33 u/L. For the same molecule, the “BLOOD UREA NITROGEN” value [3] was 14 mg/dL, the “CARBON DIOXIDE” value [3] was 22 mmol/L and the CHLORIDE [3] was 103 MEQ/L. The CHOLESTEROL [3] was 69 mg/dL, the “CREATINE PHOSPHOKINASE” value [3] was 441.67 u/L and the CREATININE [3] was 0.28 mg/dL. The GLUCOSE [3] was 182.33 mg/dL, the “LACTATE DEHYDROGENASE” value [3] was 226.33 u/L and the LIPASE [3] was 10.67 u/L. It also gave a PHOSPHORUS [3] of 12.5 mg/dL, a POTASSIUM [3] of 5.92 MEQ/L and an SODIUM [3] of 144.87 MEQ/L. The “TOTAL BILIRUBIN” value [3] was 0.2 mg/dL, the “TOTAL PROTEIN” value [3] was 5.77 G/DL and the “URIC ACID” value [3] was 1.67 mg/dL.
